# Assay results published in PMC9601927 (Foods, 2022).
# Columns and labels:
# [1] = tested on: Caco-2 cell monolayer; test: ANC transmembrane transport across Caco-2 cell monolayer (Transwell, HPLC); format: in vitro ADME
# Procedure: In this work, we utilized and slightly modified a procedure from Zou et al. to perform ANC transport studies. Firstly, ANC commercial powder was pre-dissolved in ultra-pure water and phosphate-buffered solution (PBS, pH7.4) was used for FA-g-CS dissolving. Then, pre-warmed phosphate-buffered saline (PBS) was used to wash and equilibrate the Transwell. Subsequently, the transport buffer containing ANC was added to the basolateral (1.5 mL) or the apical (0.5 mL) side of the inserts, while the corresponding volume of transport buffer was added to the receiving container. Samples measuring 50 uL were taken after 1, 2, 3, and 4 h incubation, and the same amount of pre-warmed PBS was replenished immediately. The samples were treated with HCl and frozen until HPLC analysis. The ANC-absorption-enhancing studies with FA-g-CS across Caco-2 cells were conducted using a transport buffer containing FA-g-CS+ANC instead of ANC alone.
# Transport efficiency (A→B (%)) was calculated according to the following formula: (concentrations of the compound at basolateral side overtime)/(concentrations of the compound at the apical side at zero hours) × 100. The apparent permeability coefficient (Papp) was defined as follows: Papp = (dQ/dt)(1/[AC0]); here, A represents the surface area of the Transwell, C0 represents the compound concentration added in the apical side, and the transport rate of the compound over time is denoted by dQ/dt.
# [2] = tested on: Caco-2 cells; test: MTT cell viability assay; format: cell-based
# Procedure: Caco-2 cells were provided by the Cell Bank of the Chinese Academy of Sciences (Shanghai, China). MTT analysis was used to investigate cell viability. In short, Caco-2 cells were incubated with ANC (0.23, 0.69, 2.06, 6.17, 18.52, 55.56, 166.67, or 500 × 10^−3 mg/mL), FA-g-CS (0.09, 0.27, 0.82, 2.47, 7.41, 22.22, 66.67, or 200 × 10^−3 mg/mL), or their respective combinations. Each group was incubated with three multiple wells for 48 h. Subsequently, the chemical medium was replaced with fresh MTT solution for 3 h at 37 °C and the […] was dissolved with DMSO. Then, the optical density (OD) was measured at 570 nm using a PerkinElmer EnVision (PerkinElmer, Waltham, MA, USA). The following Formula (1) was used to calculate cell viability:(1) Cell viability(%)=ODsample−ODblank/ODcontrol−ODblank where ODcontrol, ODsample, and ODblank represent the measurements of the control, sample, and blank, respectively.
# [3] = tested on: sGLT1; test: Western blot of sGLT1 expression in Caco-2 cells after siRNA transfection and incubation; format: cell-based
# Procedure: (§1) Firstly, the cells were washed twice with 1 mL of cold PBS and then lysed in 100 μL of ice-cold RIPA lysis buffer. Western blot analysis was performed following the previous method with minor modifications. Briefly, total protein samples were resolved by SDS-PAGE (8%, 10%, or 12%) and transferred to PVDF membranes blocked with 5% nonfat milk powder in TBST; these were then incubated with 8 μg of primary antibody at a dilution of 1:1000/500 (v/v) overnight at 4 °C. Detection was performed with 10 mL of ECL and oxidizing reagent and equal amounts of HRP-conjugated anti-mouse at a 1:5000 (v/v) dilution rate. To further illustrate the effect of FA-g-CS on the transmembrane transport of ANC, the Caco-2 cells were transfected with siRNA targeted to sGLT1 and GLUT2 (the optimal interference fragments screened by previous tests) and then incubated with FA-g-CS, ANC, or their combinations. Finally, the expressions of sGLT1 and GLUT2 were detected using a Western blot assay.
# [4] = tested on: GLUT2; test: Western blot of GLUT2 expression in Caco-2 cells after siRNA transfection and incubation; format: cell-based
# Procedure: as §1
# [5] = cells treated with nonrelated and scrambled siRNA
# [6] = cells treated with siRNA transfection
# [7] = siRNA-transfected Caco-2 cells incubated with compounds (abstract)
smiles,measurement,setting,value
"OC[C@H]1O[C@@H](Oc2cc3c(O)cc(O)cc3[o+]c2-c2ccc(O)c(O)c2)[C@H](O)[C@@H](O)[C@@H]1O [ANC, Cyanidin-3-glucoside]",Concentrations of ANC at the Basolateral Side,"[1]; apical ANC 0.10 ×10^−3 mg/mL, in presence of 0.05 × 10^−3 mg/mL FA-g-CS, 2 h",0.0010 ± 0.0002 bc ×10^−3 mg/mL
same,Concentrations of ANC at the Basolateral Side,"[1]; apical ANC 0.10 ×10^−3 mg/mL, in presence of 0.05 × 10^−3 mg/mL FA-g-CS, 3 h",0.0019 ± 0.0001 d ×10^−3 mg/mL
same,Concentrations of ANC at the Basolateral Side,"[1]; apical ANC 0.10 ×10^−3 mg/mL, in presence of 0.05 × 10^−3 mg/mL FA-g-CS, 4 h",0.0021 ± 0.0002 d ×10^−3 mg/mL
same,Concentrations of ANC at the Basolateral Side,"[1]; apical ANC 0.10 ×10^−3 mg/mL, without FA-g-CS co-treatment, 1 h",0.0004 ± 0.00002 a ×10^−3 mg/mL
same,Concentrations of ANC at the Basolateral Side,"[1]; apical ANC 0.10 ×10^−3 mg/mL, without FA-g-CS co-treatment, 2 h",0.0008 ± 0.00001 b ×10^−3 mg/mL
same,Concentrations of ANC at the Basolateral Side,"[1]; apical ANC 0.10 ×10^−3 mg/mL, without FA-g-CS co-treatment, 3 h",0.0009 ± 0.00001 b ×10^−3 mg/mL
same,Concentrations of ANC at the Basolateral Side,"[1]; apical ANC 0.10 ×10^−3 mg/mL, without FA-g-CS co-treatment, 4 h",0.0012 ± 0.00002 c ×10^−3 mg/mL
same,Concentrations of ANC at the Basolateral Side,"[1]; apical ANC 0.15 ×10^−3 mg/mL, in presence of 0.05 × 10^−3 mg/mL FA-g-CS, 1 h",0.0017 ± 0.0002 c ×10^−3 mg/mL
same,Concentrations of ANC at the Basolateral Side,"[1]; apical ANC 0.15 ×10^−3 mg/mL, in presence of 0.05 × 10^−3 mg/mL FA-g-CS, 2 h",0.0025 ± 0.0002 d ×10^−3 mg/mL
same,Concentrations of ANC at the Basolateral Side,"[1]; apical ANC 0.15 ×10^−3 mg/mL, in presence of 0.05 × 10^−3 mg/mL FA-g-CS, 3 h",0.0030 ± 0.0001 e ×10^−3 mg/mL
same,Concentrations of ANC at the Basolateral Side,"[1]; apical ANC 0.15 ×10^−3 mg/mL, in presence of 0.05 × 10^−3 mg/mL FA-g-CS, 4 h",0.0035 ± 0.0001 f ×10^−3 mg/mL
same,Concentrations of ANC at the Basolateral Side,"[1]; apical ANC 0.15 ×10^−3 mg/mL, without FA-g-CS co-treatment, 1 h",0.0006 ± 0.00001 a ×10^−3 mg/mL
same,Concentrations of ANC at the Basolateral Side,"[1]; apical ANC 0.15 ×10^−3 mg/mL, without FA-g-CS co-treatment, 2 h",0.0009 ± 0.00002 b ×10^−3 mg/mL
same,Concentrations of ANC at the Basolateral Side,"[1]; apical ANC 0.15 ×10^−3 mg/mL, without FA-g-CS co-treatment, 3 h",0.0010 ± 0.0003 b ×10^−3 mg/mL
same,Concentrations of ANC at the Basolateral Side,"[1]; apical ANC 0.15 ×10^−3 mg/mL, without FA-g-CS co-treatment, 4 h",0.0018 ± 0.00001 c ×10^−3 mg/mL
same,Concentrations of ANC at the Basolateral Side,"[1]; apical ANC 0.20 ×10^−3 mg/mL, in presence of 0.05 × 10^−3 mg/mL FA-g-CS, 1 h",0.0020 ± 0.0001 c ×10^−3 mg/mL
same,Concentrations of ANC at the Basolateral Side,"[1]; apical ANC 0.20 ×10^−3 mg/mL, in presence of 0.05 × 10^−3 mg/mL FA-g-CS, 2 h",0.0023 ± 0.0002 d ×10^−3 mg/mL
same,Concentrations of ANC at the Basolateral Side,"[1]; apical ANC 0.20 ×10^−3 mg/mL, in presence of 0.05 × 10^−3 mg/mL FA-g-CS, 3 h",0.0032 ± 0.0001 e ×10^−3 mg/mL
same,Concentrations of ANC at the Basolateral Side,"[1]; apical ANC 0.20 ×10^−3 mg/mL, in presence of 0.05 × 10^−3 mg/mL FA-g-CS, 4 h",0.0033 ± 0.0001 e ×10^−3 mg/mL
same,Concentrations of ANC at the Basolateral Side,"[1]; apical ANC 0.20 ×10^−3 mg/mL, without FA-g-CS co-treatment, 1 h",0.0007 ± 0.00001 a ×10^−3 mg/mL
same,Concentrations of ANC at the Basolateral Side,"[1]; apical ANC 0.20 ×10^−3 mg/mL, without FA-g-CS co-treatment, 2 h",0.001 ± 0.0002 b ×10^−3 mg/mL
same,Concentrations of ANC at the Basolateral Side,"[1]; apical ANC 0.20 ×10^−3 mg/mL, without FA-g-CS co-treatment, 3 h",0.0012 ± 0.0001 b ×10^−3 mg/mL
same,Concentrations of ANC at the Basolateral Side,"[1]; apical ANC 0.20 ×10^−3 mg/mL, without FA-g-CS co-treatment, 4 h",0.0019 ± 0.0001 c ×10^−3 mg/mL
same,"influence on Caco-2 cells (Figure 1A–C, MTT)",[2]; 2.3 × 10^−4 or 6.9 × 10^−4 mg/mL ANC,insignificant influence
same,effect on cell viability (MTT),"[2]; ANC concentration lower than 6.17 × 10^−3 mg/mL, 48 h",no significant effect
same,expression of sGLT1 compared with the blank,[3]; [5],significantly elevated
same,expression level of sGLT1 compared with the blank control,[3]; [6],significantly increased
same,increased sGLT1 expression,[3]; [7],< 60%
same,expression of GLUT2 compared with the blank,[4]; [5],significantly elevated
same,expression level of GLUT2 compared with the blank control,[4]; [6],significantly increased
same,increased GLUT2 expression,[4]; [7],< 60%
